Experimental data as given in ChEMBL document CHEMBL1201862, “PubChem BioAssay data set” (2004).
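Method: 48-hour compound exposure of cells in 96-well plates, five concentrations, linear interpolation of endpoints. GI50 = concentration required for 50% inhibition of growth.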 Active and inactive are the calls of the source. Rule as the data show it: active = GI50 up to about 1.1 µM and inactive = higher.

Assays:
Experiment in all cases: growth of human tumour cells (NCI), 48 h
CCRF-CEM = test system: CCRF-CEM
OVCAR-8 = test system: OVCAR-8
RXF 393 = test system: RXF 393
ACHN = test system: ACHN
M14 = test system: M14
HOP-92 = test system: HOP-92
DLD-1 = test system: DLD-1
SR = test system: SR
SF-268 = test system: SF-268
KM12 = test system: KM12
CAKI-1 = test system: CAKI-1
IGROV-1 = test system: IGROV-1
NCI-H460 = test system: NCI-H460
HCT-15 = test system: HCT-15
HL-60 = test system: HL-60
K562 = test system: K562
SW-620 = test system: SW-620
RPMI-8226 = test system: RPMI-8226

| Structure (SMILES) | GI50 (CCRF-CEM) | GI50 (OVCAR-8) | GI50 (RXF 393) | GI50 (ACHN) | GI50 (M14) | GI50 (HOP-92) | GI50 (DLD-1) | GI50 (SR) | GI50 (SF-268) | GI50 (KM12) | GI50 (CAKI-1) | GI50 (IGROV-1) | GI50 (NCI-H460) | GI50 (HCT-15) | GI50 (HL-60) | GI50 (K562) | GI50 (SW-620) | GI50 (RPMI-8226) |
| --- | --- | --- | --- | --- | --- | --- | --- | --- | --- | --- | --- | --- | --- | --- | --- | --- | --- | --- |
| O=C1NC2(CCCCC2)C2=C1CCCCC2 | > 100 µM (inactive) | > 100 µM (inactive) | > 100 µM (inactive) | > 100 µM (inactive) | > 100 µM (inactive) | > 100 µM (inactive) | > 100 µM (inactive) | > 100 µM (inactive) | > 100 µM (inactive) | > 100 µM (inactive) | > 100 µM (inactive) | > 100 µM (inactive) | > 100 µM (inactive) | > 100 µM | > 100 µM (inactive) | > 100 µM (inactive) | > 100 µM (inactive) |  |
| Nc1c(Cl)ncnc1NCCCCCCCCCCCCNc1ncnc(Cl)c1N | 0.162 µM (active) | 1.9 µM (inactive) | 1.54 µM (inactive) |  | 3.19 µM (inactive) | 1.32 µM (inactive) | 2.73 µM (inactive) | 0.147 µM (active) | 2.3 µM (inactive) | 3.12 µM (inactive) |  | 1.55 µM (inactive) | 1.9 µM (inactive) | 1.88 µM | 0.051 µM (active) | < 0.01 µM (active) | 2.69 µM (inactive) | 1.5 µM (inactive) |
| C=Cc1ccc(C)[n+](C[Si](C)(C)O[Si](C)(C)C[n+]2cc(C=C)ccc2C)c1 | > 100 µM (inactive) | > 100 µM (inactive) | > 100 µM (inactive) | > 100 µM (inactive) | > 100 µM (inactive) | > 100 µM (inactive) | > 100 µM (inactive) | > 100 µM (inactive) | > 100 µM (inactive) | > 100 µM (inactive) | > 100 µM (inactive) | > 100 µM (inactive) | > 100 µM (inactive) |  | > 100 µM (inactive) | > 100 µM (inactive) | > 100 µM (inactive) | > 100 µM (inactive) |
| Cc1ccccc1N(CCC#N)C1=NN(C(=O)CC(=O)Nc2ccc(Cl)cc2)C(c2ccccc2)C1 (stereo not drawn) | > 100 µM (inactive) | > 100 µM (inactive) | > 100 µM (inactive) | > 100 µM (inactive) | > 100 µM (inactive) | > 100 µM (inactive) | > 100 µM (inactive) | > 100 µM (inactive) | > 100 µM (inactive) | > 100 µM (inactive) |  | > 100 µM (inactive) | > 100 µM (inactive) | > 100 µM | > 100 µM (inactive) | > 100 µM (inactive) | > 100 µM (inactive) | > 100 µM (inactive) |
| O=C1NC(=O)C2C1N(Cc1ccccc1)C(=O)N2Cc1ccccc1 (stereo not drawn) | > 100 µM (inactive) |  | > 100 µM (inactive) | > 100 µM (inactive) | > 100 µM (inactive) | > 100 µM (inactive) | > 100 µM (inactive) | > 100 µM (inactive) | > 100 µM (inactive) | > 100 µM (inactive) | > 100 µM (inactive) | > 100 µM (inactive) | > 100 µM (inactive) | > 100 µM | > 100 µM (inactive) | > 100 µM (inactive) | > 100 µM (inactive) | > 100 µM (inactive) |
| CC(=O)C1(O)CCC2(O)C3(O)CC=C4CC(O)CCC4(C)C3CC(OC(=O)c3ccc(O)cc3)C12C.COC1CC(OC2C(C)OC(OC3C(C)OC(OC4CCC5(C)C(=CCC6(O)C5CC(OC(=O)c5ccc(O)cc5)C5(C)C(O)(C(C)=O)CCC65O)C4)CC3OC)CC2OC)OC(C)C1O (stereo not drawn) | 32.4 µM (inactive) | 29.9 µM (inactive) | 44.4 µM (inactive) | 30.1 µM (inactive) |  | 21.1 µM (inactive) | 36.6 µM (inactive) | 25.8 µM (inactive) | 30.6 µM (inactive) |  |  | 34.2 µM (inactive) | 34.2 µM (inactive) | 33.6 µM | 20.7 µM (inactive) |  | 42.1 µM (inactive) | 27.5 µM (inactive) |
